Measured values taken from the supplement of paper PMC10307832.

Each cell line was assayed with O=C1NC(=O)[C@@H](c2cn3c4c(cccc24)CCC3)[C@@H]1c1c[nH]c2ccccc12 [Tivantinib] + COc1cccc2cc(-c3nc([C@H]4CC[C@H](C(=O)O)CC4)n4ncnc(N)c34)[nH]c12 [OSI-027] (partner 0.5 µM) (assay: relative viability (nuclei count vs DMSO), 5 days (fraction); higher = more cells survive). Conditions: first compound 0.01 µM.
Procedure, shortened: (§1)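 Values are medians from duplicate plates. Each reflects relative viability, defined as the nuclei count of treated wells over that of vehicle wells. Lung cancer cell lines in 1536-well plates were pin-tool dosed one day after seeding with one drug alone or with a fixed anchor-drug dose plus five library-drug doses (not always all listed) in √10 steps, then fixed, stained and imaged at 4× after 5 days.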
NCI-H2085 was tested, and the relative viability was 0.773. Work on HCC-366 yielded a relative viability of 0.941. With PC-3 [JPC-3] the relative viability was 0.841. For EKVX, the relative viability was 0.711. With NCI-H1944 the relative viability was 0.372. NCI-H1993 showed a relative viability of 0.538. Work on SK-LU-1 yielded a relative viability of 0.364. For ABC-1, the relative viability was 0.586. NCI-H358 was tested, and the relative viability was 0.839. NCI-H661 showed a relative viability of 0.72. Work on RERF-LC-KJ yielded a relative viability of 0.592.

Same assay, conditions: first compound 0.03162 µM
Cell Line NCI-H2085 has a relative viability of 0.582. With HCC-366 the relative viability was 0.807. PC-3 [JPC-3] showed a relative viability of 0.724. With EKVX the relative viability was 0.663. NCI-H1944 gave a relative viability of 0.349. For NCI-H1993, the relative viability was 0.57. Work on SK-LU-1 yielded a relative viability of 0.342. For ABC-1, the relative viability was 0.422. In the case of NCI-H358, the relative viability is reported as 0.94. Work on NCI-H661 yielded a relative viability of 0.665. In the case of RERF-LC-KJ, the relative viability is reported as 0.646.

Same assay, conditions: first compound 0.1 µM
With NCI-H2085 the relative viability was 0.851. With HCC-366 the relative viability was 0.848. PC-3 [JPC-3] gave a relative viability of 0.716. EKVX gave a relative viability of 0.679. Cell Line NCI-H1944 has a relative viability of 0.393. NCI-H1993 showed a relative viability of 0.563. SK-LU-1 gave a relative viability of 0.381. For ABC-1, the relative viability was 0.538. For NCI-H358, the relative viability was 0.634. NCI-H661 was tested, and the relative viability was 0.755. RERF-LC-KJ showed a relative viability of 0.512.

Same assay, conditions: first compound 0.3162 µM
In the case of NCI-H2085, the relative viability is reported as 0.412. With HCC-366 the relative viability was 0.934. In the case of PC-3 [JPC-3], the relative viability is reported as 0.48. Cell Line NCI-H1944 has a relative viability of 0.328. NCI-H1993 showed a relative viability of 0.61. Cell Line SK-LU-1 has a relative viability of 0.363. In the case of ABC-1, the relative viability is reported as 0.603. In the case of NCI-H358, the relative viability is reported as 0.195. Work on NCI-H661 yielded a relative viability of 0.396. In the case of RERF-LC-KJ, the relative viability is reported as 0.389.

Each cell line was assayed with CC1(COc2ccc3c(c2)ncn3-c2ccc3cccc(N4CCC(N)CC4)c3n2)COC1 [Crenolanib] + CS(=O)(=O)CCNCc1ccc(-c2ccc3ncnc(Nc4ccc(OCc5cccc(F)c5)c(Cl)c4)c3c2)o1 [Lapatinib] (partner 2 µM) in the same assay as above. Conditions: first compound 0.01 µM.
Procedure, shortened: as §1
NCI-H2085 was tested, and the relative viability was 0.65. For HCC-366, the relative viability was 0.954. PC-3 [JPC-3] showed a relative viability of 0.452. EKVX showed a relative viability of 0.2. For NCI-H1944, the relative viability was 0.814. In the case of NCI-H1993, the relative viability is reported as 0.805. Cell Line SK-LU-1 has a relative viability of 0.911. For ABC-1, the relative viability was 1.23. Work on NCI-H358 yielded a relative viability of 0.468. NCI-H661 gave a relative viability of 0.493. RERF-LC-KJ showed a relative viability of 0.917.

Same assay, conditions: first compound 0.03162 µM
For NCI-H2085, the relative viability was 0.81. Work on HCC-366 yielded a relative viability of 1.09. PC-3 [JPC-3] gave a relative viability of 0.45. EKVX gave a relative viability of 0.241. For NCI-H1944, the relative viability was 0.809. With NCI-H1993 the relative viability was 0.759. SK-LU-1 gave a relative viability of 0.917. ABC-1 was tested, and the relative viability was 1.02. NCI-H358 was tested, and the relative viability was 0.461. For NCI-H661, the relative viability was 0.547. In the case of RERF-LC-KJ, the relative viability is reported as 0.886.

Same assay, conditions: first compound 0.1 µM
With NCI-H2085 the relative viability was 0.731. HCC-366 gave a relative viability of 0.916. In the case of PC-3 [JPC-3], the relative viability is reported as 0.511. EKVX showed a relative viability of 0.186. NCI-H1944 gave a relative viability of 0.839. NCI-H1993 showed a relative viability of 0.856. Work on SK-LU-1 yielded a relative viability of 0.694. ABC-1 was tested, and the relative viability was 1.28. Work on NCI-H358 yielded a relative viability of 0.44. NCI-H661 gave a relative viability of 0.47. Work on RERF-LC-KJ yielded a relative viability of 0.903.

Same assay, conditions: first compound 0.3162 µM
NCI-H2085 was tested, and the relative viability was 0.745. Cell Line HCC-366 has a relative viability of 1.31. Cell Line PC-3 [JPC-3] has a relative viability of 0.449. Work on EKVX yielded a relative viability of 0.222. In the case of NCI-H1944, the relative viability is reported as 0.617. NCI-H1993 was tested, and the relative viability was 0.787. In the case of SK-LU-1, the relative viability is reported as 0.921. ABC-1 gave a relative viability of 1.1. With NCI-H358 the relative viability was 0.45. NCI-H661 was tested, and the relative viability was 0.451. Work on RERF-LC-KJ yielded a relative viability of 0.872.

Same assay, conditions: first compound 1 µM
In the case of NCI-H2085, the relative viability is reported as 0.799. In the case of HCC-366, the relative viability is reported as 0.915. PC-3 [JPC-3] showed a relative viability of 0.452. Cell Line EKVX has a relative viability of 0.239. NCI-H1944 showed a relative viability of 0.698. In the case of NCI-H1993, the relative viability is reported as 0.784. Work on SK-LU-1 yielded a relative viability of 0.958. For ABC-1, the relative viability was 1.23. NCI-H358 gave a relative viability of 0.312. Work on NCI-H661 yielded a relative viability of 0.468. Work on RERF-LC-KJ yielded a relative viability of 0.812.

Each cell line was assayed with CC1(COc2ccc3c(c2)ncn3-c2ccc3cccc(N4CCC(N)CC4)c3n2)COC1 [Crenolanib] + C[C@]1(O)C[C@@H](c2nc(-c3ccc4ccc(-c5ccccc5)nc4c3)c3c(N)nccn32)C1 [Linsitinib] (partner 1 µM) in the same assay as above. Conditions: first compound 0.01 µM.
Procedure, shortened: as §1
NCI-H2085 showed a relative viability of 0.998. In the case of HCC-366, the relative viability is reported as 0.628. For PC-3 [JPC-3], the relative viability was 0.965. Work on EKVX yielded a relative viability of 1.05. Cell Line NCI-H1944 has a relative viability of 1.18.
